The text below walks through data of US20100179225A1, “POI Prevention” (CYTOKINE PHARMASCIENCES, INC., priority 2008, published 2010).

Test [1] deals with jejunal circular smooth muscle. Briefly: In vitro jejunal circular smooth muscle contractility (bethanechol) after IM, mouse. The test is classed as in vivo, mice. The procedure:
Jejunal smooth muscle activity was measured as previously described (Kalff J C, Schraut W H, Simmons R L et al. Surgical manipulation of the gut elicits an intestinal muscularis inflammatory response resulting in postsurgical ileus. Ann Surg 1998; 228:652-663). Briefly, after preparation, mucosa-free circular ME strips were equilibrated in KRB perfused organ chambers at 37° C. for 1 hour. One end of each strip was tied to a fixed post and the other attached to an isometric force transducer (ADI, Heidelberg, Germany) connected to the bridge amplifier and powerlab system (ADI). Dose-response curves of muscle contraction were generated by exposing the muscle strips to increasing concentrations of the muscarinic agonist bethanechol (0.1-300 μmol/L) for 10 minutes, followed by a wash-period (KRB) of 10 minutes. The contractile response was analyzed with the ADI Chart© software and the contractions were calculated as grams per square millimeter per second by conversion of the weight and length of the strip to square millimeters of tissue.

The test system of the next test is neutrophils in ME. Briefly: Neutrophil infiltration into mouse ME (myeloperoxidase staining of whole mounts) after IM. It is filed as in vivo, mice. The note with it: for number of neutrophils in ME: 24 hours after IM. The text has this:
The small bowel of the animals was subjected to a standardized, surgical manipulation (IM) as described previously (Kalff J C, Schraut W H, Simmons R L et al. Surgical manipulation of the gut elicits an intestinal muscularis inflammatory response resulting in postsurgical ileus. Ann Surg 1998; 228:652-663; Wehner S, Schwarz N T, Hundsdoerfer R et al. Induction of IL-6 within the rodent intestinal muscularis after intestinal surgical stress. Surgery 2005; 137:436-446). In brief, after anesthesia a midline abdominal incision was made into the peritoneal cavity. The entire small bowel was eventuated and manipulated with standardized moderate intensity using two moist cotton applicators as described previously. After IM, the laparotomy was closed by one layer of continuous suture, except when probe sampling was conducted within 20 minutes after surgery. These animals were held in anesthesia and the abdomen was closed by a clamp and protected with sterile gauze. All other animals recovered rapidly from the bowel manipulation procedure. Control animals exclusively underwent laparotomy without eventration and IM (sham operation).
Animals within examples referring to FIGS. 2-9 were treated 90 minutes before operation with 0 mg/kg (placebo group), or 5 mg/kg bodyweight CNI-1493. In further experiments in rats or mice 0.1, 1.0 or 10 mg/kg CPSI-2364 were administered 90 minutes before surgical procedure via oral route. Oral (p.o.) administration was performed via a gastric tube. CNI-1493 and CPSI-2364 were dissolved in 2.5% mannitol. Placebo and CNI-1493 or CPSI-2364 groups were subdivided in two further groups. One was sham operated (laparotomy without IM) while the other underwent laparotomy followed by IM.
Specimens for histochemical analysis were prepared 24 h after operation and performed on whole mounts of the distal jejunum, as described before in detail (n=5-7 each group) 9. In brief, jejunal segments were opened, immersed in chilled Krebs-Ringer buffer (KRB) and fixed in 100% ethanol for 10 minutes. After washing with KRB, mucosa and submucosa were stripped off and ME whole mounts were used for detection of myeloperoxidase (MPO) positive cells (neutrophils). Thereto, freshly prepared whole mounts were stained with Hanker-Yates reagent as described previously (Wehner S, Schwarz N T, Hundsdoerfer R et al. Induction of IL-6 within the rodent intestinal muscularis after intestinal surgical stress. Surgery 2005; 137:436-446). MPO+-cells were counted under a microscope (TE-2000, Nikon, Duesseldorf, Germany) in 5 randomly chosen areas in each specimen.

Test [2] has as its system mice. Briefly: In vivo gastrointestinal transit (FITC-dextran geometric center) after IM, mouse. The procedure: Gastrointestinal transit was measured 23.5 hours postoperatively by evaluating the intestinal location of a fluorochrome labeled dextran (FITC—dextran, 70.000 MW, Molecular Probes, Netherlands) (n=10 each). Thereto, 22 hours after the bowel manipulation, animals were lightly anesthetized and given FITC-dextran (200 μl of 6.25 mg/ml stock solution) via a gastric tube into the stomach. Mice were killed 90 minutes after administration, the entire gastrointestinal tract was divided into 15 segments, opened and FITC-dextran was washed out by PBS. Fluorescence of segment washes was read at 494 nm/521 nm wavelength in fluorescence reader (Tecan, Crailsheim, Germany). The data were expressed as the percentage of activity per segment. Gastrointestinal transit was calculated as the geometric center (GC) of distribution of fluorescence marker using this formula:
GC=Σ(% of total fluorescent signal per segment*segment number)/100.

Test [3] has as its system mice. In words: In vivo colonic transit (glass ball excretion time) after IM, mouse. The procedure: Colonic transit measurement was performed 24 h hours after operation by inserting a 2 mm glass ball with a metal rod 3 cm into the colon. Before insertion colonic patency was ensured by exclusively inserting the rod 3 cm into the colon. Mice were weakly anesthetized with isofluran for the whole procedure and wake up within 40 seconds after glass ball insertion. Colonic transit time was calculated as the period between insertion and excretion of the ball.

Test [4] deals with nitric oxide (NO) production in ME. Briefly: Nitric oxide release from cultured mouse ME (Griess reaction) after IM. The test is classed as in vivo, mice. The procedure: […] Control animals received CNI-1493 (5 mg/kg) intravenously or CPSI-2364 orally (1 mg/kg or 0.1 mg/kg), but were not operated.
After preoperative i.v. or oral drug or placebo administration animals underwent IM. Control animals received CNI-1493 or placebo i.v. or orally but were not operated.
Total ME from small intestine was isolated 24 h after operation as described above and then cut into small pieces and washed for 30 minutes in PBS containing a penicillin/streptomycin (200U/200 μg) mixture. Aliquots of ˜50 mg were incubated in 1 mL of DMEM at 37° C. and 5% CO2 for further 24 hours and tissue culture supernatants were frozen in liquid nitrogen. The muscle tissue was blotted dry, and the exact weight was measured. To quantify the generation of NO from intestinal smooth muscle preparations, nitrite production was measured by the Griess reaction as described previously (Kalff J C, Schraut W H, Billiar T R et al. Role of inducible nitric oxide synthase in postoperative intestinal smooth muscle dysfunction in rodents. Gastroenterology 2000; 118:316-327). In brief, supernatant from the tissue culture was mixed with an equal volume of Griess reagent (0.1% N-(1-napthyl)ethyl-enediamine dihydrochloride and 1% sulfanilamide in 6% phosphoric acid; 1:1) and incubated for 10 minutes. The absorbance at 550 nm was measured with a microplate reader and compared with standard dilutions of sodium nitrite. Total nitrite produced was normalized to 1 g of muscle tissue.
On the technique in general: The Griess reaction detects nitrite, a stable product of nitric oxide.

`C/C(=N\N=C(N)N)c1cc(NC(=O)CCCCCCCCC(=O)Nc2cc(/C(C)=N/N=C(N)N)cc(/C(C)=N/N=C(N)N)c2)cc(/C(C)=N/N=C(N)N)c1.Cl.Cl.Cl.Cl` [CNI-1493]: the “suppression of bethanechol stimulated muscle contractility after IM” value in test [1] (5 mg/kg i.v. preoperative, 24 h after IM) is on record as “completely abrogated”. Moreover, the results for the “number of neutrophils in ME” value with neutrophils in ME (5 mg/kg i.p. preoperative) and with neutrophils in ME (5 mg/kg i.v. preoperative) were 36.1±10.7 and 52.1±15.5, respectively. Besides, in the test with neutrophils in ME (intravenous treatment, after IM), the “neutrophil infiltration, reduction” value is listed as “reduced by only one third”. Besides, the “gastrointestinal transit, geometric center (GC)” value stood at 10.96±1.71 with mice [2] (5 mg/kg i.p. preoperative, IM); 9.81±0.92 in the test on mice [2] (5 mg/kg i.p., sham operated); 8.97±0.60 in the test on mice [2] (5 mg/kg i.v. 90 minutes before operation, IM); 11.98±0.73 in the test with mice [2] (5 mg/kg i.v., sham operated); 5.48±2.01 in the test with mice [2] (given immediately before laparotomy and IM (results not shown)). Besides, the colonic transit time was found to be 166 ± 87 s in the test with mice [3] (5 mg/kg intravenously preoperative, 24 hours after IM) and 118 ± 68 s in the test on mice [3] (unoperated controls of the CNI-1493 group (S-CTL, FIG. 8E)). Besides, the “NO production (nitrite release) from ME” value was 333 ± 198 µM in test [4] (5 mg/kg i.v. preoperative, ME taken 24 h after IM, cultured 24 h) and 45.5 ± 52.2 µM in test [4] (5 mg/kg i.v., non-operated animals (basal)).

Consider `C/C(=N\N=C(N)N)c1cc(NC(=O)CCCCCCCCC(=O)Nc2cc(/C(C)=N/N=C(N)N)cc(/C(C)=N/N=C(N)N)c2)cc(/C(C)=N/N=C(N)N)c1.CS(=O)(=O)O.CS(=O)(=O)O.CS(=O)(=O)O.CS(=O)(=O)O` [CPSI-2364], for which, in test [1] (mice, p.o. preoperative (FIG. 13)), the “suppression of bethanechol stimulated muscle contractility after IM” value was “strongly abrogated”. Also, in the test with neutrophils in ME (mice, p.o. preoperative, 24 hours after IM (FIG. 11)), the “neutrophils in ME compared to the placebo IM group” value is on record as “significant reduction of neutrophils”. For the same compound, the “geometric centers of FITC dextran distribution vs Sham+Placebo” value in the test with mice [2] (mice, 0.1, 1 or 10 mg/kg orally 90 minutes, 6 hours or 16 h before operation, IM (FIG. 25)) is reported as “None of the CPSI-2364 treated groups differed significantly from the Sham+Placebo group”. Besides, the “gastrointestinal transit (GIT)” value in the test with mice [2] (mice, p.o. preoperative, IM (FIG. 14)) is on record as “normalized GIT”. For the same compound, the “colonic transit, excretion time of the ball vs Sham+Placebo” value in the test with mice [3] (mice, 0.1, 1 or 10 mg/kg orally 90 minutes, 6 hours or 16 h before operation, IM (FIG. 26)) is recorded as “None of the CPSI-2364 treated group differed significantly from Sham+Placebo group”. Besides, in test [4] (mice, 10 mg/kg orally 90 minutes or intravenously 60 minutes before operation, IM (FIG. 27)), the “nitric oxide and its metabolites in muscularis culture supernatant vs Sham+Placebo” value is listed as “None of the CPSI-2364 treated group differed significantly different from Sham+Placebo group”.
